Results as given in EP0820989A1, “IMIDAZOLE DERIVATIVES AND MEDICINAL COMPOSITION THEREOF” (YAMANOUCHI PHARMACEUTICAL CO., LTD., priority 1995, dated 1996).
Where two headings read alike, the source gives them in different places.

Molecular target: T1, rat steroid 17-20 lyase (Rattus norvegicus, UniProt P11715)
T1 construct: Testes were excised from ten-week-old male Wistar rats, homogenized and then centrifuged to give microsomes; from tissue; host or cells: testis microsomes of ten-week-old male Wistar rats
T1 sequence (P11715 1-507): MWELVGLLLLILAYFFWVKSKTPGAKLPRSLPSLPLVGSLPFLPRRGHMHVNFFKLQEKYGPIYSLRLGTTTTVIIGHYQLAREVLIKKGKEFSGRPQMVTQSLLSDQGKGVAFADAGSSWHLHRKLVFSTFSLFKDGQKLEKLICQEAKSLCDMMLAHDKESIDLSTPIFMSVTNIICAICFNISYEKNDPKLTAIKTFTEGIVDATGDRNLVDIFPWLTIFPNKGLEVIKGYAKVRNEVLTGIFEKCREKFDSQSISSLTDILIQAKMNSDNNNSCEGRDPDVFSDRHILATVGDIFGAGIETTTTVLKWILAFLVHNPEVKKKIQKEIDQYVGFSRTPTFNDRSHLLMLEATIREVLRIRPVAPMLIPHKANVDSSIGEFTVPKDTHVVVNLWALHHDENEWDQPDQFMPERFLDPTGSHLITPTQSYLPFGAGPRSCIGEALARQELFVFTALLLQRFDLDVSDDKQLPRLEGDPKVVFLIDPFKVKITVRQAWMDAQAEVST
Assay: Measurement of inhibition of rat steroid 17-20 lyase activity [in vitro]
Type: biochemical
Protocol: (1) Measurement of inhibition of rat steroid 17-20 lyase activity [in vitro]
This was carried out in accordance with the method described in J. Steroid Biochem., Vol.33, No.6, 1191-1195 (1989).
Testes were excised from ten-week-old male Wistar rats, homogenized and then centrifuged to give microsomes. The microsomal protein (50 µg), 1 µM of [1,2-^3H]-17α-hydroxyprogesterone (5.55 × 10^5 dpm) and a test compound were dissolved in 100 µl of 50 mM phosphate buffer (pH 7.4), NADPH solution was added, and then the mixture was incubated at 37°C for 60 minutes. Then, 400 µl of a mixed solution of methanol and tetrahydrofuran (2:3) was added, and the mixture was subjected to centrifugation, and then radioactivities of the substrate and the formed product (androstenedione and testosterone) in the resulting supernatant were measured by a high performance liquid chromatography (HPLC) equipped with a radioisotope detector to examine the activity of the test compound to inhibit steroid 17-20 lyase.

IC50 (rat testis microsomes (50 µg protein), 1 µM [1,2-3H]-17α-hydroxyprogesterone, NADPH, pH 7.4, 37°C, 60 minutes, HPLC, read-out: Inhibition of steroid 17-20 lyase activity IC50) [nM] | SMILES | IC50 [nM]
12.7 | Fc1ccc2c(c1)[nH]c1cc(Cc3cccnc3)ccc12 [Control compound, reference compound] | –
– | CC(c1ccc2c(c1)[nH]c1ccccc12)c1c[nH]cn1 (stereo not drawn) [Example 1e, 2-[1-(1H-Imidazol-4-yl)ethyl]-9H-carbazole] | 3.9
– | CCCn1cncc1Cc1ccc2c(c1)[nH]c1ccccc12 [Example 13, 2-[(1-Propyl-1H-imidazol-5-yl)methyl]-9H-carbazole] | 2.5
